Source: US20190308987A1, “DUAL MODULATORS OF BOTH MU AND KAPPA OPIOID RECEPTORS” (priority 2016, published 2019)
Entries after “also recorded” stand apart in the source; their conditions may differ.

Key:
[1] = system: visceral pain (abdominal stretches); assay: Acetic acid induced writhing assay; type: in vivo, Swiss Webster mice
Procedure: To determine whether BNAP provides KOR mediated analgesia acetic acid-induced abdominal stretches were counted in mice. Swiss Webster mice were allowed to acclimate in individual testing cages for at least 10 min. Following the acclimation period the vehicle or BNAP was administered via s.c injection at the specified dose. After waiting for 10 min the mice were injected intraperitoneally with 10 mL/kg 0.6% (wt/vol) acetic acid and returned to their observation chambers. After the first 3 min, the number of stretches and abdominal contractions were counted for 15 min. All values shown for abdominal stretching experiments represent separate groups of mice (n=4-8) as each animal was tested only once and euthanized immediately after testing.
In order to confirm the involvement of the KOR in the analgesia produced by BNAP in the Acetic Acid Induced Writhing test, this test was performed in the presence of the KOR-specific antagonist nor-Binaltorphimine 2HCl (nor-BNI). According to previous literature, nor-BNI antagonist activity reaches optimal selectivity and efficacy in the writhing test at 24 hours post administration.^27, 28 These animals were injected sub-cutaneously with either 10 mg/kg nor-BNI or saline 24 hours prior to initiation of the writhing test. The writhing test was then performed as described above (n=5-6).

intestinal transit = assay: Charcoal meal test for gastrointestinal transit; type: in vivo, mice
Procedure: Forty-eight hours before testing, mice were placed in cages with raised mesh wire to suspend them above their bedding and prevent ingestion of feces or bedding. The animals were habituated for 24 h in the presence of food and water and then fasted for 24 h with free access to water as previously reported.^24 This time frame was chosen to deplete the intestine and colon of any feces. To maintain caloric intake and to avoid hypoglycemia, mice had access to a sugar water solution consisting of a final concentration of 5% dextrose for the first 8 h of the fasting period. […] At 30 min after the administration of the charcoal meal, the mice were euthanized by cervical dislocation, and the small intestine from the jejunum to the cecum was dissected and placed in cold saline to stop peristalsis. The distance traveled by the leading edge of the charcoal meal was measured relative to the total length of the small intestine, and the percentage of intestinal transit for each animal was calculated as percentage transit (charcoal distance)/(small intestinal length)×100. This is referred to as intestinal transit in the text.

mu opioid receptor (MOR) = target: T1, mu opioid receptor (MOR) (Mus musculus, UniProt P42866); assay: Competitive radioligand binding, MOR ([3H]naloxone); conditions: mean ± SEM of three experiments
T1 construct: expressed in transfected cells; host or cells: CHO cells (membranes)
Procedure: (§1) The details of the Radioligand Binding and Functional Studies that were used were described previously.^19 Chinese hamster ovarian (CHO) cell lines were used as monoclonal opioid receptor expressing cells. The μ, δ, and κ opioid receptors were labeled with [^3H]naloxone, ^3H-naltrindole ([^3H]NTI) and ^3H-nor-Binaltorphimine ([^3H]norBNI). The opioid receptor expressing cell membranes were incubated with the radioligands at different concentrations of the drug under investigation at 30° C. for 1 h. With the absence and presence of 10 μM naltrexone, specific binding was got as the difference in binding obtained. The specific binding of the drugs to the radioligand was calculated from data using linear regression analysis of Hill plots.
(§2) All samples were assayed in triplicate and repeated at least twice for a total of 3 independent determinations. Results were reported as mean values±SEM. Concentration-effect curves were fit by nonlinear regression to a one-site binding model, using GraphPad Prism software, to determine EC50 and Emax values. IC50 values were obtained from Hill plots and analyzed by linear regression using Microsoft Excel software. Binding Ki values were determined from IC50 values using the Cheng-Prusoff equation: Ki=IC50/l+([L]/KD), where [L] is the concentration of […] and KD is the KD of the radioligand.

KOR = target: T2, KOR (Homo sapiens, UniProt P41145); assay: [35S]GTPγS-binding assay, KOR-expressing CHO cell membranes; type: biochemical
T2 construct: expressed in transfected cells; host or cells: CHO cells (membranes)
Procedure: (§3) [^35S]-GTPγS-Binding Assays using DOR- or KOR-Expressing CHO Cell Lines: Cell membranes (10 μg protein) were incubated with 10 μM GDP and 0.1 nM [^35S]-GTPγS in assay buffer in the presence and absence of varying concentrations of BNAP, 3 μM SNC80 (standard full agonist at DOR) or 3 μM U50,488H (standard full agonist at KOR) for 90 min at 30° C. Nonspecific binding was determined with 10 μM unlabeled GTPγS. The reaction was terminated and bound radioactivity determined as described above and previously.^9
as §2

DOR = target: T3, DOR (Homo sapiens, UniProt P41143); assay: [35S]GTPγS-binding assay, DOR-expressing CHO cell membranes; type: biochemical
T3 construct: expressed in transfected cells; host or cells: CHO cells (membranes)
Procedure: as §3, §2

colonic motility = assay: Colonic bead expulsion assay; type: in vivo, mice
Procedure: Mice were habituated and fasted as described above for the gastrointestinal transit analysis. […] At 20 min post-injection, animals were anesthetized with isoflurane (1-2 min) to insert a single 2-mm glass bead into the distal colon at a distance of 3 cm from the anus. Bead insertion was accomplished using a glass rod with a fire-polished end to avoid tissue damage and marked at 3 cm.^25 After bead insertion, mice were placed in individual cages and the time to bead expulsion was monitored. Animals were monitored for a maximum of 2 h unless bead expulsion occurred sooner.

[2] = target: T4, kappa opioid receptor (KOR) (Homo sapiens, UniProt P41145); assay: Competitive radioligand binding, KOR ([3H]nor-BNI)
T4 construct: expressed in transfected cells; host or cells: CHO cells (membranes)
Procedure: as §1, §2

[3] = system: mouse proximal colon circular muscle; assay: Colon circular muscle isometric tension recordings, proximal colon
Procedure: Mice were euthanized by cervical dislocation. The colon was dissected, flushed of its contents, and trimmed of mesentery. […] The tissues, 0.5 cm in length, were suspended vertically along the axis of the circular muscle with a metal triangle tied to a hook under 1 g of passive tension in 15 mL siliconized organ baths.
Data are presented as the mean±S.E.M, values of P≤0.05 were considered significant.

O=C(N[C@@H]1CC[C@@]2(O)[C@H]3Cc4ccc(O)c5c4[C@@]2(CCN3CC2CC2)C1O5)c1cc[n+](Cc2ccccc2)cc1 (stereo partly drawn) [BNAP] was tested, and the “analgesia in presence of nor-BNI” value ([1]; 10 mg/kg nor-BNI s.c. 24 h before, morphine pelleted animals) was “effectively blocked the analgesia produced by BNAP”, the “active concentration in hypernociceptive model” value ([1]; mice chronically treated with 75 mg morphine pellet) was “active at three fold lower concentration; also recorded: active at concentrations three-fold lower” and the number of writhes ([1]; s.c., naive mice) was “dose dependently reduced the number of writhes”. The “reduction of intestinal motility” value (intestinal transit; charcoal gavage, compound alone) was 1.5 fold, the “reversal of morphine induced inhibition of intestinal motility” value (intestinal transit; mice treated acutely with morphine) was “unable to reverse morphine induced inhibition of intestinal motility” and the Ki (mu opioid receptor (MOR)) was 0.76 ± 0.09 nM. The EC50 (KOR; 35S-GTP[γS]) was 2.9 ± 1.1 nM, the “% max of agonist” value (KOR; Emax relative to full agonist U50,488H) was 45.9±1.7% and the EC50 (DOR; 35S-GTP[γS]) was 108 ± 69 nM. The “% max of agonist” value (DOR; Emax relative to full agonist SNC80) was 9.2±2.2%, the bead expulsion time (colonic motility; BNAP alone 10 mg/kg, naive mice 17 min) was 43 min and the “antagonism of morphine's effect on bead expulsion” value (colonic motility; BNAP concurrently or 5 or 15 min before morphine) was “no significant antagonism of morphine's effects was observed”. The Ki ([2]; KOR, [3H]nor-BNI, read-out: Ki (nM) ± SEM) was 3.46 ± 0.05 nM, the “Selectivity (κ/μ)” value ([2]; ratio of Ki KOR/MOR) was 4.6 and the “inhibition of morphine-induced contractions” value ([3]; 1 nM antagonist, proximal colon) was “neither NAP nor BNAP showed significant inhibition of morphine-induced contractions”. The “morphine pD2 in presence of antagonist” value ([3]; 10 nM antagonist, proximal colon (naive 6.8)) was 5.9, the “further reduction of morphine pD2” value ([3]; 100 nM versus 10 nM antagonist, proximal colon) was “no further reduction of the morphine pD2” and the “contractions induced by compound alone” value ([3]; up to 30 μM, proximal colon preparation) was “Neither BNAP nor NAP alone at concentrations up to 30 μM induced contractions”.
